Measured values taken from ChEMBL document CHEMBL3132785, “Design, synthesis and evaluation of N6-substituted 2-aminoadenosine-5-N-methylcarboxamides as A3 adenosine receptor agonists” (Medchemcomm, 2014).

Columns and labels:
Homo sapiens [1] = species on record: Homo sapiens; experiment: Selectivity ratio; ratio of pEC50 for human adenosine A2A receptor to pEC50 for human adenosine A3 receptor
Adenosine receptor A2a = Adenosine receptor A2a (Homo sapiens, UniProt P29274); experiment: Agonist activity at human adenosine A2A receptor expressed in FlpIn-CHO cells assessed as inhibition of forskolin-induced cAMP accumulation after 30 mins by fluorescence assay; format: functional, cell-based
Adenosine receptor A3 = biological target: T1, Adenosine receptor A3 (Homo sapiens, UniProt P0DMS8); experiment: Agonist activity at human adenosine A3 receptor expressed in FlpIn-CHO cells assessed as inhibition of forskolin-induced cAMP accumulation after 30 mins by fluorescence assay; format: functional, cell-based
T1 sequence (P0DMS8 whole entry): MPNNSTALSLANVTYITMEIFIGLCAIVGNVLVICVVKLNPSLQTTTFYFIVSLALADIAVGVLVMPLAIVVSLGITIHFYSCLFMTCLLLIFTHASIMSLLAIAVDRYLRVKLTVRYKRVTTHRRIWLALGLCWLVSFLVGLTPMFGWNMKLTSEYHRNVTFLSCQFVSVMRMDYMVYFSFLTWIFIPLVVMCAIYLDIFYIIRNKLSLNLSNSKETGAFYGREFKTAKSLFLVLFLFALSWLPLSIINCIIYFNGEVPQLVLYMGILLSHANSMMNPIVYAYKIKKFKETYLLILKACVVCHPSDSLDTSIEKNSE

Adenosine receptor A1 = biological target: T2, Adenosine receptor A1 (Homo sapiens, UniProt P30542); experiment: Agonist activity at human adenosine A1 receptor expressed in FlpIn-CHO cells assessed as inhibition of forskolin-induced cAMP accumulation after 30 mins by fluorescence assay; format: functional, cell-based
T2 sequence (P30542 whole entry): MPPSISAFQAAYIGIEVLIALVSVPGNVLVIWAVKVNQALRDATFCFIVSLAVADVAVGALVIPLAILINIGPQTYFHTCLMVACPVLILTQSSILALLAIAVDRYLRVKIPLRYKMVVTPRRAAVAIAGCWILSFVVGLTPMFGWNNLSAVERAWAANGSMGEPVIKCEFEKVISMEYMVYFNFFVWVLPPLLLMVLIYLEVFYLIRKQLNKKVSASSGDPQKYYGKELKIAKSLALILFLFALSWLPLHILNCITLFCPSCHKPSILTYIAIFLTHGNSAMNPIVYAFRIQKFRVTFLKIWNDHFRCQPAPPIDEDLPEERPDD

Homo sapiens [2] = species on record: Homo sapiens; experiment: Selectivity ratio; ratio of pEC50 for human adenosine A2B receptor to pEC50 for human adenosine A3 receptor
[3] = biological target: Adenosine receptors; A1 & A3 (Homo sapiens) (UniProt P30542+P0DMS8); experiment: Selectivity ratio; ratio of pEC50 for human adenosine A1 receptor to pEC50 for human adenosine A3 receptor
Adenosine receptor A2b = biological target: T3, Adenosine receptor A2b (Homo sapiens, UniProt P29275); experiment: Agonist activity at human adenosine A2B receptor expressed in FlpIn-CHO cells assessed as inhibition of forskolin-induced cAMP accumulation after 30 mins by fluorescence assay; format: functional, cell-based
T3 sequence (P29275 whole entry): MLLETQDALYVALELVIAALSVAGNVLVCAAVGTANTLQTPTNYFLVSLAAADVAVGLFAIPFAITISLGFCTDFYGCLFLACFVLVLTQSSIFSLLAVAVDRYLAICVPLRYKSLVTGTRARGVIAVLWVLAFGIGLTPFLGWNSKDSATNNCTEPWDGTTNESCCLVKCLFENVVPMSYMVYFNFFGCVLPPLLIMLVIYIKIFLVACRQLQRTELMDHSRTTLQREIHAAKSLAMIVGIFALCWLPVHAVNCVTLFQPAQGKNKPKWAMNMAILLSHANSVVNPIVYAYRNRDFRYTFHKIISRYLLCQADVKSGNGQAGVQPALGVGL

Chain of Adenosine receptor A2a (P29274 whole entry): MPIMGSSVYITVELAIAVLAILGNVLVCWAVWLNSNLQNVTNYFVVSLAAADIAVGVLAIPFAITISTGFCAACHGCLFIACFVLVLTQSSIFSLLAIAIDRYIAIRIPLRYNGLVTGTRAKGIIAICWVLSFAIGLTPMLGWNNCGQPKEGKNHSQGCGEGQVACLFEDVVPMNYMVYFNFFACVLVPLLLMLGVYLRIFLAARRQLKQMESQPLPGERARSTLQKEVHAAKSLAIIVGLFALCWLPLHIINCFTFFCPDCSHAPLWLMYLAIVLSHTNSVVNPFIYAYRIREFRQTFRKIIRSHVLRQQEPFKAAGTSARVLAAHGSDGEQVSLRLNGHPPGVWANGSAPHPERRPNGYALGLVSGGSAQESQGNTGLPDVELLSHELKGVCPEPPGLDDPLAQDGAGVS

SMILES | Selectivity ratio (Homo sapiens [1]) | EC50 (Adenosine receptor A2a) [nM] | EC50 (Adenosine receptor A3) [nM] | EC50 (Adenosine receptor A1) [nM] | Selectivity ratio (Homo sapiens [2]) | Selectivity ratio [3] | EC50 (Adenosine receptor A2b) [nM]
CCCNc1nc(N)nc2c1ncn2[C@@H]1O[C@H](C(=O)NC)[C@@H](O)[C@H]1O | > 1000 | > 10000 | 10 | 316 | 501 | 32 | 5010
CCNc1nc(N)nc2c1ncn2[C@@H]1O[C@H](C(=O)NC)[C@@H](O)[C@H]1O | > 1000 | > 10000 | 10 | 2510 | 158 | 251 | 1580
CNC(=O)[C@H]1O[C@@H](n2cnc3c(NCc4ccccc4)nc(N)nc32)[C@H](O)[C@@H]1O | 100 | 3160 | 31.6 | 6310 | 4 | 200 | 126
CNC(=O)[C@H]1O[C@@H](n2cnc3c(NCc4cccc(I)c4)nc(N)nc32)[C@H](O)[C@@H]1O | 158 | 251 | 1.58 | 251 | 100 | 158 | 158
CCN(CC)c1nc(NC2CCCC2)c2ncn([C@@H]3O[C@H](C(=O)NC)[C@@H](O)[C@H]3O)c2n1 | > 4 | > 10000 | 2510 | > 10000 | > 4 | > 4 | > 10000
CNC(=O)[C@H]1O[C@@H](n2cnc3c(NCc4cccc(Cl)c4)nc(N)nc32)[C@H](O)[C@@H]1O | 631 | 398 | 0.631 | 316 | 631 | 501 | 398
CNC(=O)[C@H]1O[C@@H](n2cnc3c(NCc4cccc(I)c4)ncnc32)[C@H](O)[C@@H]1O [IB-MECA] | – | – | – | – | – | – | 31.6
CNC(=O)[C@H]1O[C@@H](n2cnc3c(NC)nc(N)nc32)[C@H](O)[C@@H]1O | > 2000 | > 10000 | 5.01 | 3980 | 316 | 794 | 1580
CNC(=O)[C@H]1O[C@@H](n2cnc3c(NC4CCC4)nc(N)nc32)[C@H](O)[C@@H]1O | 501 | 2510 | 5.01 | 63.1 | 40 | 13 | 200
CCCCNc1nc(N)nc2c1ncn2[C@@H]1O[C@H](C(=O)NC)[C@@H](O)[C@H]1O | > 251 | > 10000 | 39.8 | 794 | 32 | 20 | 1260
CNC(=O)[C@H]1O[C@@H](n2cnc3c(NCC(c4ccccc4)c4ccccc4)nc(N)nc32)[C@H](O)[C@@H]1O | 158 | 794 | 5.01 | 398 | 40 | 79 | 200
CNC(=O)[C@H]1O[C@@H](n2cnc3c(NC4CCCC4)nc(NC)nc32)[C@H](O)[C@@H]1O | 40 | 3980 | 100 | 398 | > 100 | 4 | > 10000
CNC(=O)[C@H]1O[C@@H](n2cnc3c(NC4CCCCC4)nc(N)nc32)[C@H](O)[C@@H]1O | 6 | 794 | 126 | 63.1 | 20 | 1 | 2510
CNC(=O)[C@H]1O[C@@H](n2cnc3c(NC4CCCC4)nc(N(C)C)nc32)[C@H](O)[C@@H]1O | 8 | 5010 | 631 | > 10000 | > 16 | > 16 | > 10000
CCNc1nc(NC2CCCC2)c2ncn([C@@H]3O[C@H](C(=O)NC)[C@@H](O)[C@H]3O)c2n1 | 8 | 501 | 39.8 | 501 | > 251 | 8 | > 10000
CNC(=O)[C@H]1O[C@@H](n2cnc3c(NC4CCCC4)nc(N)nc32)[C@H](O)[C@@H]1O | 79 | 1260 | 15.8 | 39.8 | 50 | 3 | 794
CNC(=O)[C@H]1O[C@@H](n2cnc3c(NCCc4ccccc4)nc(N)nc32)[C@H](O)[C@@H]1O | 20 | 79.4 | 3.98 | 316 | 40 | 79 | 158
